Test results reported in patent US10344019B2 (priority 2010, dated 2019).
Where two headings read alike, the source gives them in different places.

Legend:
Assay in all cases: microbe, parasite or virus in culture
Assay type in all cases: cell-based
[1] = system: HCV 2a JFH-1 Rluc cells (dicistronic genotype 2a JFH-1 replicon, RLuc reporter); conditions: genotype 2a JFH-1 replicon, read-out: 2a JFH
Method: (§1) Evaluation of cell-based anti-HCV activity: Antiviral potency (EC50) was determined using a Renilla luciferase (RLuc)-based HCV replicon reporter assay. To perform the assay for genotype 1 and 2a JFH-1, HCV 1b RLuc cells (harboring a dicistronic genotype 1b Con1 replicon that encodes a RLuc reporter), or HCV 1a RLuc cells (harboring a dicistronic genotype 1a H77 replicon that encodes a RLuc reporter), or HCV 2a JFH-1 Rluc cells (harboring a dicistronic genotype 2a JFH-1 replicon that encodes a RLuc reporter) were dispensed into 384-well plates. To perform the assay for genotype 2a (with M31 present) or 2b, HCV 2a Rluc or 2b Rluc cells (both with M31 present) harboring a dicistronic NS5A chimeric genotype 2a JFH-1 replicon that encodes a RLuc reporter and either genotype 2a J6 strain NS5A gene or genotype 2b MD2b-1 NS5A gene (based on Los Alamos HCV database isolates, both with M31 present) respectively, were dispensed into 384-well plates. To perform the assay for genotype 3 and 4, HCV 3a RLuc or 4a Rluc cells harboring a dicistronic NS5A chimeric genotype 1b Con1 replicon that encodes a RLuc reporter and either a consensus genotype 3a NS5A gene or genotype 4a NS5A gene (based on Los Alamos HCV database isolates) respectively, were dispensed into 384-well plates. Compounds were re-suspended in DMSO at a concentration of 10 mM and serially diluted in DMSO either manually or using an automated pipeting instrument. Serially diluted compounds were mixed with cell culture media and added to the seeded cells. […] 72 hours later, cells were lysed and Renilla luciferase activity quantified as recommended by the manufacturer (Promega-Madison, Wis.). Non-linear regression was performed to calculate EC50 values.

[2] = system: HCV 1b RLuc cells (dicistronic genotype 1b Con1 replicon, RLuc reporter)
Method: as §1

[3] = system: HCV 1a RLuc cells (dicistronic genotype 1a H77 replicon, RLuc reporter); conditions: genotype 1a H77 replicon, read-out: 1a
Method: as §1

[4] = system: HCV 3a RLuc cells (NS5A chimeric genotype 1b Con1 replicon with consensus genotype 3a NS5A gene)
Method: as §1

[5] = Hepatitis C virus, RLuc reporter
[6] = Hepatitis C virus, read-out: 1b (nM)
[7] = Hepatitis C virus, read-out: 3a, genotype 3a NS5A chimeric 1b Con1 replicon
[8] = Hepatitis C virus, 72 h, Table 2, 72 hours
[9] = Hepatitis C virus, 72 h, read-out: 1b (nM)
[10] = Hepatitis C virus, read-out: 3a, Table 2, genotype 3a NS5A chimeric replicon

Row | Compound | EC50 [1, 5] | EC50 [2, 6] | EC50 [3, 5] | EC50 [4, 7] | further results
1 | COC(=O)N[C@H](C(=O)N1CCC[C@H]1c1ncc(-c2ccc3cc(-c4ccc5c(c4)CCc4nc([C@@H]6CCCN6C(=O)[C@H](NC(=O)OC)c6ccccc6)[nH]c4-5)ccc3c2)[nH]1)C1CCOCC1 [Example 170] | 0.001 to 0.999 nM | 0.032 nM | 0.001 to 0.999 nM | 0.001 to 0.99 nM | 
2 | COC(=O)N[C@H](C(=O)N1CCC[C@H]1c1nc2ccc(-c3ccc(-c4ccc5c(c4)CCc4nc([C@@H]6CCCN6C(=O)[C@H](NC(=O)OC)c6ccccc6)[nH]c4-5)cc3)cc2[nH]1)C(C)C [Example 166] | 0.001 to 0.999 nM | 0.018 nM | 1 to 44 nM | 0.001 to 0.99 nM | 
3 | COC(=O)N[C@H](C(=O)N1CCC[C@H]1c1nc(-c2ccc3cc(-c4ccc(-c5cnc([C@@H]6CCCN6C(=O)[C@@H](c6ccccc6)N(C)C)[nH]5)cc4)ccc3c2)c[nH]1)C(C)C [Example 31] |  |  |  |  | EC50 [1, 8]: 0.001 to 0.999 nM; EC50 [2, 9]: 0.014 nM; EC50 [3, 8]: 0.001 to 0.999 nM; EC50 [4, 10]: 0.001 to 0.99 nM
4 | COC(=O)N[C@H](C(=O)N1[C@@H]2CC[C@@H](C2)[C@H]1c1ncc(-c2ccc(-c3ccc4c(ccc5nc([C@@H]6CCCN6C(=O)[C@@H](NC(=O)OC)C6CCOCC6)[nH]c54)c3)cc2)[nH]1)C(C)C [Example 82] |  |  |  |  | EC50 [1, 8]: 0.001 to 0.999 nM; EC50 [2, 9]: 0.042 nM; EC50 [3, 8]: 0.001 to 0.999 nM; EC50 [4, 10]: 0.001 to 0.99 nM
5 | COC(=O)N[C@H](C(=O)N1CCC[C@H]1c1ncc(-c2ccc3c(c2)CCc2cc(-c4cnc([C@@H]5CCCN5C(=O)[C@H](NC(=O)OC)c5ccccc5)[nH]4)ccc2-3)[nH]1)C(C)C [Example 180] | 0.001 to 0.999 nM | 0.007 nM | 0.001 to 0.999 nM | 0.001 to 0.99 nM | 
6 | COC(=O)N[C@H](C(=O)N1CCC[C@H]1c1ncc(-c2ccc3cc(-c4ccc(-c5cnc([C@@H]6CCCN6C(=O)[C@H](NC(=O)OC)c6cccnc6)[nH]5)cc4)ccc3c2)[nH]1)C(C)C [Example 161] | 0.001 to 0.999 nM | 0.019 nM | 0.001 to 0.999 nM | 0.001 to 0.99 nM | 
7 | COC(=O)N[C@H](C(=O)N1CCC[C@H]1c1nc2c([nH]1)-c1ccc(-c3ccc4cc(-c5cnc([C@@H]6CCCN6C(=O)[C@@H](NC(=O)OC)C6CCOCC6)[nH]5)ccc4c3)cc1CC2)C(C)C [Example 209] | 0.001 to 0.999 nM | 0.014 nM | 0.001 to 0.999 nM | 0.001 to 0.99 nM | 
8 | COC(=O)N[C@H](C(=O)N1CCC[C@H]1c1ncc(-c2ccc3cc(-c4ccc(-c5cnc([C@@H]6CCCN6C(=O)[C@H](NC(=O)OC)c6ccccc6C)[nH]5)cc4)ccc3c2)[nH]1)C(C)C [Example 150] | 0.001 to 0.999 nM | 0.006 nM | 0.001 to 0.999 nM | 0.001 to 0.99 nM | 
9 | COC(=O)N[C@H](C(=O)N1CCC[C@H]1c1ncc(-c2ccc3cc(-c4ccc5c(c4)OCc4nc([C@@H]6CCCN6C(=O)[C@H](NC(=O)OC)c6ccccc6)[nH]c4-5)ccc3c2)[nH]1)C(C)C [Example 172] | 0.001 to 0.999 nM | 0.011 nM | 0.001 to 0.999 nM | 0.001 to 0.99 nM | 
10 | COC(=O)N[C@H](C(=O)N1C[C@@H](C#N)C[C@H]1c1nc2ccc(-c3ccc(-c4ccc5c(c4)CCc4nc([C@@H]6CCCN6C(=O)[C@H](NC(=O)OC)c6ccccc6)[nH]c4-5)cc3)cc2[nH]1)C1CCOCC1 [Example 167] | 0.001 to 0.999 nM | 0.048 nM | 0.001 to 0.999 nM | 0.001 to 0.99 nM | 
11 | CCN[C@@H](C(=O)N1CCC[C@H]1c1nc(-c2ccc(-c3ccc4cc(-c5c[nH]c([C@@H]6CCCN6C(=O)[C@@H](NC(=O)OC)C(C)C)n5)ccc4c3)cc2)c[nH]1)c1ccccc1 [Example 165] | 0.001 to 0.999 nM | 0.009 nM | 0.001 to 0.999 nM | 0.001 to 0.99 nM | 
12 | COC(=O)NC(C(=O)N1CCC[C@H]1c1ncc(-c2ccc3c(c2)C(F)(F)c2cc(-c4ccc(-c5cnc([C@@H]6CCCN6C(=O)[C@H](NC(=O)OC)c6ccccc6)[nH]5)cc4)ccc2-3)[nH]1)C(C)C (stereo partly shown) [Example 194] | 1 to 44 nM | 0.01 nM | 1 to 44 nM | 1 to 4.99 nM | 
13 | CCO[C@H]1C[C@@H](c2ncc(-c3ccc(-c4ccc5cc(-c6cnc([C@@H]7CCCN7C(=O)[C@@H](NC(=O)OC)C(C)C)[nH]6)ccc5c4)cc3)[nH]2)N(C(=O)[C@@H](c2ccccc2)N(C)C)C1 [Example 158] | 0.001 to 0.999 nM | 0.01 nM | 0.001 to 0.999 nM | 0.001 to 0.99 nM | 
14 | CCN(CC)[C@@H](C(=O)N1CCC[C@H]1c1ncc(-c2ccc3cc(-c4ccc(-c5cnc([C@@H]6CC7(COCO7)CN6C(=O)[C@@H](NC(=O)OC)C(C)C)[nH]5)cc4)ccc3c2)[nH]1)c1ccccc1 (stereo partly shown) [Example 36] |  |  |  |  | EC50 [1, 8]: 0.001 to 0.999 nM; EC50 [2, 9]: 0.01 nM; EC50 [3, 8]: 0.001 to 0.999 nM; EC50 [4, 10]: 0.001 to 0.99 nM
15 | COC(=O)N[C@H](C(=O)N1C[C@H](C#N)C[C@H]1c1ncc(-c2ccc3cc(-c4ccc(-c5cnc([C@@H]6CCCN6C(=O)[C@@H](c6ccccc6)N(C)C)[nH]5)cc4)ccc3c2)[nH]1)C(C)C [Example 144] | 0.001 to 0.999 nM | 0.013 nM | 0.001 to 0.999 nM | 0.001 to 0.99 nM | 
16 | COC(=O)N[C@H](C(=O)N1C[C@H](C)C[C@H]1c1ncc(-c2ccc3cc(-c4ccc(-c5cnc([C@@H]6CCCN6C(=O)[C@H](NC(=O)OC)c6ccccc6OC)[nH]5)cc4)ccc3c2)[nH]1)C(C)C [Example 147] | 0.001 to 0.999 nM | 0.012 nM | 0.001 to 0.999 nM | 0.001 to 0.99 nM | 
17 | COC(=O)N[C@H](C(=O)N1[C@@H]2CC[C@@H](C2)[C@H]1c1ncc(-c2ccc(-c3ccc4cc(-c5cnc([C@@H]6CC7(CC7)CN6C(=O)C(c6ccccc6)N6CCOCC6)[nH]5)ccc4c3)cc2)[nH]1)C(C)C (stereo partly shown) [Example 28] |  |  |  |  | EC50 [1, 8]: 1 to 44 nM; EC50 [2, 9]: 0.023 nM; EC50 [3, 8]: 1 to 44 nM; EC50 [4, 10]: 0.001 to 0.99 nM
18 | COC(=O)N[C@H](C(=O)N1CCC[C@H]1c1ncc(-c2ccc3cc(-c4ccc(-c5cnc([C@@H]6SCCN6C(=O)[C@H](NC(=O)OC)c6ccccc6)[nH]5)cc4)ccc3c2)[nH]1)C(C)C [Example 117] | 0.001 to 0.999 nM | 0.007 nM | 0.001 to 0.999 nM | 0.001 to 0.99 nM | 
19 | COC(=O)N[C@H](C(=O)N1CCC[C@H]1c1ncc(-c2ccc(-c3ccc4cc(-c5cnc(C6CCCN6C(=O)[C@H](NC(=O)OC)c6ccccc6)[nH]5)ccc4c3)cc2)[nH]1)C1CCOCC1 (stereo partly shown) [Example 154] | 0.001 to 0.999 nM | 0.014 nM | 0.001 to 0.999 nM | 0.001 to 0.99 nM | 
20 | COC(=O)N[C@H](C(=O)N1CCC[C@H]1c1ncc(-c2ccc3cc(C#Cc4cnc([C@@H]5CCCN5C(=O)[C@H](NC(=O)OC)c5ccccc5)[nH]4)ccc3c2)[nH]1)C(C)C [Example 115] | 0.001 to 0.999 nM | 0.019 nM | 0.001 to 0.999 nM | 0.001 to 0.99 nM | 
21 | COC(=O)N[C@H](C(=O)N1C[C@H](C#N)C[C@H]1c1ncc(-c2ccc3cc(-c4ccc(-c5cnc([C@@H]6CCCN6C(=O)[C@H](NC(=O)OC)c6ccccc6)[nH]5)cc4)ccc3c2)[nH]1)C(C)C [Example 135] | 0.001 to 0.999 nM | 0.006 nM | 0.001 to 0.999 nM | > 5 nM | 
22 | COC(=O)N[C@H](C(=O)N1CCC[C@H]1c1ncc(-c2ccc3cc(-c4ccc(-c5cnc([C@@H]6CCCN6C(=O)[C@H](NC(=O)OC)c6ccccc6F)[nH]5)cc4)ccc3c2)[nH]1)C(C)C [Example 148] | 0.001 to 0.999 nM |  | 0.001 to 0.999 nM |  | EC50 ([2]; read-out: 1b): 0.02 nM; EC50 ([4]; read-out: 3a, genotype 3a NS5A chimeric 1b Con1 replicon): 1 to 4.99 nM
23 | COC(=O)N[C@H](C(=O)N1CCC[C@H]1c1ncc(-c2ccc3cc(-c4ccc(-c5cnc([C@@H]6C[C@H](C)CN6C(=O)[C@H](NC(=O)OC)c6ccccc6)[nH]5)cc4)ccc3c2)[nH]1)C(C)C [Example 130] | 0.001 to 0.999 nM | 0.006 nM | 0.001 to 0.999 nM | 0.001 to 0.99 nM | 
24 | COC(=O)N[C@H](C(=O)N1CCC[C@H]1c1nc2c([nH]1)-c1ccc(-c3ccc4cc(-c5cnc([C@@H]6CCCN6C(=O)[C@H](NC(=O)OC)c6ccccc6)[nH]5)ccc4c3)cc1CC2)C1CCOCC1 [Example 174] |  |  |  | 0.001 to 0.99 nM | EC50 ([1]; RLuc reporter): 0.001 to 0.999 nM; EC50 ([2]; read-out: 1b): 0.015 nM; EC50 ([3]; RLuc reporter): 0.001 to 0.999 nM
25 | COC(=O)N[C@H](C(=O)N1Cc2ccccc2C1c1nc(-c2ccc(-c3ccc4cc(-c5cnc([C@@H]6CCCN6C(=O)[C@@H](NC(=O)OC)C(C)C)[nH]5)ccc4c3)cc2)c[nH]1)C(C)C (stereo partly shown) [Example 112] | 1 to 44 nM | 0.018 nM | 0.001 to 0.999 nM | > 5 nM | 
